These compounds were tested against human orexin-2 receptor (Homo sapiens (Human), UniProt O43614) (assay: FLIPR Ca2+ Flux Assay, orexin-2 receptor antagonism in CHO cells). Settings: CHO cells expressing the human orexin-2 receptor; agonist 70 pM Ala-6,12 orexin-A; read-out: hOX2 FLIPR IC50.
human orexin-2 receptor, sequence (O43614 whole entry): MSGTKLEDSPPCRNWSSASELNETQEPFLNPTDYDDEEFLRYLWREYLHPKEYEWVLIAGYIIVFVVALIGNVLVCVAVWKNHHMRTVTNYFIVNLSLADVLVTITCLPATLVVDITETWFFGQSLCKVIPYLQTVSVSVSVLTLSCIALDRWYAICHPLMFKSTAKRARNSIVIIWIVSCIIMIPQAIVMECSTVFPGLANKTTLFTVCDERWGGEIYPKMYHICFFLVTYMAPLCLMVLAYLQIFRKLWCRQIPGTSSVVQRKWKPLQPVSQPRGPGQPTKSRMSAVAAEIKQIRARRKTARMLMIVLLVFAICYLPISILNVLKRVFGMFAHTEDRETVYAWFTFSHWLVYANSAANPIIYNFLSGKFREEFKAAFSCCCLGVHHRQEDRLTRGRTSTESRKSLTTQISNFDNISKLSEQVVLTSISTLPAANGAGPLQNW
Assay type: cell-based
Description: The utility of the compounds in accordance with the present invention as orexin receptor OX1R and/or OX2R antagonists may be readily determined without undue experimentation by methodology well known in the art, including the “FLIPR Ca^2+ Flux Assay” (Okumura et al., Biochem. Biophys. Res. Comm. 280:976-981, 2001). In a typical experiment the OX1 and OX2 receptor antagonistic activity of the compounds of the present invention was determined in accordance with the following experimental method. For intracellular calcium measurements, Chinese hamster ovary (CHO) cells expressing the rat orexin-1 receptor or the human orexin-2 receptor, are grown in Iscove's modified DMEM containing 2 mM L-glutamine, […], 1% hypoxanthine-thymidine supplement, 100 U/ml penicillin, 100 μg/ml streptomycin and 10% heat-inactivated fetal calf serum (FCS). The cells are seeded at 20,000 cells/well into Becton-Dickinson black 384-well clear bottom sterile plates coated with poly-D-lysine. All reagents are from GIBCO-Invitrogen Corp. The seeded plates are incubated overnight at 37° C. and 5% CO2. Ala-6,12 human orexin-A as the agonist is prepared as a 1 mM stock solution in 1% bovine serum albumin (BSA) and diluted in assay buffer (HBSS containing 20 mM HEPES, 0.1% BSA and 2.5 mM probenecid, pH7.4) for use in the assay at a final concentration of 70 pM. Test compounds are prepared as 10 mM stock solution in DMSO, then diluted in 384-well plates, first in DMSO, then assay buffer. On the day of the assay, cells are washed 3 times with 100 μl assay buffer and then incubated for 60 min (37° C., 5% CO2) in 60 μl assay buffer containing […] Fluo-4AM ester, 0.02% pluronic acid, and 1% BSA. The dye loading solution is then aspirated and cells are washed 3 times with 100 μl assay buffer. 30 μl of that same buffer is left in each well. Within the Fluorescent Imaging Plate Reader (FLIPR, Molecular Devices), test compounds are added to the plate in a volume of 25 μl, incubated for 5 min and finally 25 μl of agonist is added. Fluorescence is measured for each well at 1 second intervals for 5 minutes and the height of each fluorescence peak is compared to the height of the fluorescence peak induced by 70 pM Ala-6,12 orexin-A with buffer in place of antagonist. For each antagonist, IC50 value (the concentration of compound needed to inhibit 50% of the agonist response) is determined. Alternatively, compound potency can be assessed by a radioligand binding assay (described in Bergman et. al. Bioorg. Med. Chem. Lett. 2008, 18, 1425-1430) in which the inhibition constant (Ki) is determined in membranes prepared from CHO cells expressing either the OX1 or OX2 receptor. The intrinsic orexin receptor antagonist activity of a compound which may be used in the present invention may be determined by these assays.
`C[C@@H]1CC[C@@H](Oc2nccn3c(C(F)(F)F)cnc23)CN1C(=O)c1cccnc1OCC(F)F` [Example 64, (2-(2,2-difluoroethoxy)pyridin-3-yl)((2R,5R)-2-methyl-5-((3-(trifluoromethyl)imidazo [1,2-α]pyrazin-8-yl)oxy)piperidin-1-yl)methanone] showed an IC50 of 17.4 nM. `CCCc1ccccc1C(=O)N1C[C@H](Oc2nccn3ccnc23)CC[C@H]1C` [Example 4, ((2R,5R)-5-(imidazo[1,2-a]pyrazin-8-yloxy)-2-methylpiperidin-1-yl)(2-propylphenyl)methanone] gave an IC50 of 31.9 nM. Compound `C[C@@H]1CC[C@@H](Oc2nccn3c(C(F)F)cnc23)CN1C(=O)c1ccccc1C1(C#N)CC1` [Example 42, 1-(2-((2R,5R)-5-((3-(difluoromethyl)imidazo[1,2-α]pyrazin-8-yl)oxy)-2-methylpiperidine-1-carbonyl)phenyl)cyclopropanecarbonitrile] has an IC50 of 5 nM. Compound `Cc1cn2ccnc(O[C@@H]3CC[C@@H](C)N(C(=O)c4ccccc4C4(C#N)CC4)C3)c2n1` [Example 9, 1-(2-((2R,5R)-2-methyl-5-((2-methylimidazo[1,2-α]pyrazin-8-yl)oxy)piperidine-1-carbonyl)phenyl)cyclopropanecarbonitrile] has an IC50 of 13.2 nM. `C[C@@H]1CC[C@@H](Oc2nccn3c(Cl)cnc23)CN1C(=O)c1ccsc1-n1nccn1` [Example 29, (2-(2H-1,2,3-triazol-2-yl)thiophen-3-yl)((2R,5R)-5-((3-chloroimidazo[1,2-α]pyrazin-8-yl)oxy)-2-methylpiperidin-1-yl)methanone] was tested, and the IC50 was 14.3 nM. Compound `C[C@@H]1CC[C@@H](Nc2nccc3c2cnn3C)CN1C(=O)c1ccccc1-n1nccn1` [Example 96, (2-(2H-1,2,3-triazol-2-yl)phenyl)((2R,5R)-2-methyl-5-((1-methyl-1H-pyrazolo[4,3-c]pyridin-4-yl)amino)piperidin-1-yl)methanone] has an IC50 of 60 nM. `COC(=O)c1ccccc1C(=O)N1C[C@H](Oc2nccn3c(C(F)F)cnc23)CC[C@H]1C` [Example 48, methyl 2-((2R,5R)-5-((3-(difluoromethyl)imidazo[1,2-α]pyrazin-8-yl)oxy)-2-methylpiperidine-1-carbonyl)benzoate] showed an IC50 of 24.9 nM. `C[C@@H]1CC[C@@H](Oc2nccn3c(C(F)F)cnc23)CN1C(=O)c1ncccc1-c1ccccc1` [Example 49, ((2R,5R)-5-((3-(difluoromethyl)imidazo[1,2-α]pyrazin-8-yl)oxy)-2-methylpiperidin-1-yl)(3-phenylpyridin-2-yl)methanone] was tested, and the IC50 was 51.8 nM. `C=Cc1cnc2c(O[C@@H]3CC[C@@H](C)N(C(=O)c4ccccc4-n4nccn4)C3)nccn12` [Example 36, (2-(2H-1,2,3-triazol-2-yl)phenyl)((2R,5R)-2-methyl-5-((3-vinylimidazo[1,2-a]pyrazin-8-yl)oxy)piperidin-1-yl)methanone] gave an IC50 of 21 nM. `Cc1cn2ccnc(O[C@@H]3CC[C@@H](C)N(C(=O)c4cccnc4-n4cccn4)C3)c2n1` [Example 18, (2-(1H-pyrazol-1-yl)pyridin-3-yl) ((2R,5R)-2-methyl-5-((2-methylimidazo[1,2-α]pyrazin-8-yl)oxy)piperidin-1-yl)methanone] showed an IC50 of 58.7 nM. `CC(C)Oc1ncccc1C(=O)N1C[C@H](Oc2nccn3nccc23)CC[C@H]1C` [Example 83, (2-isopropoxypyridin-3-yl)((2R,5R)-2-methyl-5-(pyrazolo[1,5-α]pyrazin-4-yloxy)piperidin-1-yl)methanone] showed an IC50 of 49.1 nM. For `Cc1nc2ccnc(O[C@@H]3CC[C@@H](C)N(C(=O)c4ccccc4-n4nccn4)C3)n2n1` [Example 104, (2-(2H-1,2,3-triazol-2-yl)phenyl)((2R,5R)-2-methyl-5-((2-methyl-[1,2,4]triazolo[1,5-c]pyrimidin-5-yl)oxy)piperidin-1-yl)methanone], the IC50 was 60 nM. `C[C@@H]1CC[C@@H](Oc2nccn3ccnc23)CN1C(=O)c1ccccc1CC(F)(F)F` [Example 3, ((2R,5R)-5-(imidazo[1,2-α]pyrazin-8-yloxy)-2-methylpiperidin-1-yl)(2-(2,2,2-trifluoroethyl)phenyl)methanone] showed an IC50 of 50.4 nM. Compound `CC(C)c1cn2ccnc(O[C@@H]3CC[C@@H](C)N(C(=O)c4ccccc4-n4nccn4)C3)c2n1` [Example 20, (2-(2H-1,2,3-triazol-2-yl)phenyl)((2R,5R)-5-((2-isopropylimidazo[1,2-a]pyrazin-8-yl)oxy)-2-methylpiperidin-1-yl)methanone] has an IC50 of 49 nM. Compound `C[C@@H]1CC[C@@H](Oc2nccn3c(C(F)(F)F)cnc23)CN1C(=O)c1ccccc1-n1nccn1` [Example 57] has an IC50 of 13.1 nM. For `C[C@@H]1CC[C@@H](Oc2nccn3c(C(F)F)cnc23)CN1C(=O)c1cccnc1OCC(F)F` [Example 51, (2-(2,2-difluoroethoxy)pyridin-3-yl)((2R,5R)-5-((3-(difluoromethyl)imidazo[1,2-α]pyrazin-8-yl)oxy)-2-methylpiperidin-1-yl) methanone], the IC50 was 31.8 nM. `C[C@@H]1CC[C@@H](Oc2nccn3c(C(F)F)cnc23)CN1C(=O)c1ccccc1CS(C)(=O)=O` [Example 39, ((2R,5R)-5-((3-(difluoromethyl)imidazo[1,2-a]pyrazin-8-yl)oxy)-2-methylpiperidin-1-yl)(2-((methylsulfonyl)methyl)phenyl)methanone] was tested, and the IC50 was 62.6 nM. Work on `C[C@@H]1CC[C@@H](Nc2nccc3c2ncn3C)CN1C(=O)c1ccccc1-n1nccn1` [Example 101, (2-(2H-1,2,3-triazol-2-yl)phenyl)((2R,5R)-2-methyl-5-((1-methyl-1H-imidazo[4,5-c]pyridin-4-yl)amino)piperidin-1-yl)methanone] yielded an IC50 of 38.5 nM. `C[C@@H]1CC[C@@H](Nc2nccn3cc(C(F)(F)F)nc23)CN1C(=O)c1ccccc1-n1nccn1` [Example 22, (2-(2H-1,2,3-triazol-2-yl)phenyl)((2R,5R)-2-methyl-5-((2-(trifluoromethyl)imidazo[1,2-a]pyrazin-8-yl)amino)piperidin-1-yl)methanone] gave an IC50 of 45.4 nM. `C[C@@H]1CC[C@@H](Oc2nccn3c(C(F)F)cnc23)CN1C(=O)c1ccccc1-n1ncnn1` [Example 44, (2-(2H-tetrazol-2-yl)phenyl)((2R,5R)-5-((3-(difluoromethyl)imidazo[1,2-α]pyrazin-8-yl)oxy)-2-methylpiperidin-1-yl)methanone] gave an IC50 of 9.6 nM. In the case of `Cc1cn2ccnc(O[C@@H]3CC[C@@H](C)N(C(=O)c4ccsc4-c4ncccn4)C3)c2n1` [Example 14, ((2R,5R)-2-methyl-5-((2-methylimidazo[1,2-α]pyrazin-8-yl)oxy)piperidin-1-yl) (2-(pyrimidin-2-yl)thiophen-3-yl)methanone], the IC50 is reported as 36.8 nM. Work on `CCOc1ccccc1C(=O)N1C[C@H](Oc2ccnc3ocnc23)CC[C@H]1C` [Example 94, (2-ethoxyphenyl)((2R,5R)-2-methyl-5-(oxazolo[5,4-b]pyridin-7-yloxy)piperidin-1-yl)methanone] yielded an IC50 of 24.4 nM. Compound `C[C@@H]1CC[C@@H](Oc2nccn3nccc23)CN1C(=O)c1nccnc1-c1ccccn1` [Example 78, ((2R,5R)-2-methyl-5-(pyrazolo[1,5-α]pyrazin-4-yloxy)piperidin-1-yl)(3-(pyridin-2-yl)pyrazin-2-yl)methanone] has an IC50 of 59.1 nM. Work on `C[C@@H]1CC[C@@H](Oc2nccn3cc(CO)nc23)CN1C(=O)c1ccccc1-n1nccn1` [Example 25, (2-(2H-1,2,3-triazol-2-yl)phenyl)((2R,5R)-5-((2-(hydroxymethyl)imidazo[1,2-a]pyrazin-8-yl)oxy)-2-methylpiperidin-1-yl)methanone] yielded an IC50 of 49.3 nM. Work on `C[C@@H]1CC[C@@H](Oc2nccn3c(C(F)F)cnc23)CN1C(=O)c1cscc1-c1ncccn1` [Example 55, ((2R,5R)-5-((3-(difluoromethyl)imidazo [1,2-α]pyrazin-8-yl)oxy)-2-methylpiperidin-1-yl)(4-(pyrimidin-2-yl)thiophen-3-yl)methanone] yielded an IC50 of 44.9 nM. `CCc1cnc2c(O[C@@H]3CC[C@@H](C)N(C(=O)c4ccccc4-n4nccn4)C3)nccn12` [Example 37, (2-(2H-1,2,3-triazol-2-yl)phenyl)((2R,5R)-5-((3-ethylimidazo[1,2-a]pyrazin-8-yl)oxy)-2-methylpiperidin-1-yl)methanone] was tested, and the IC50 was 29.2 nM.

— patent US10526336B2, “Fused heteroaryl derivatives as orexin receptor antagonists” (Merck Sharp & Dohme Corp., priority 2014, dated 2020)
